{"source": "patent US20200181709A1", "about": "“METHODS OF DETECTION AND TREATMENT OF UROTHELIAL CANCER” (THE JOHNS HOPKINS UNIVERSITY, priority 2015, published 2020)", "key": {"[1]": {"test_system": "CCNA1 expression in UCC cell lines", "test": "Q-RT-PCR of CCNA1 expression after 5-aza-dc and/or TSA treatment of UCC cell lines", "format": "cell-based", "settings": "SW780 and J82 cell lines; 5 μM 5-aza-dc for 5 days; vs PBS control", "description": "(§1) UCC cells were seeded in 75 cm2 culture flasks at a density of […] and incubated at 37° C. in 5% CO2/95% air overnight. Cells were then treated with 5μM of 5-aza-dc (Sigma Chemical, Sigma, USA) for 5 days. […] Additionally, combination treatment with 5-aza-dc and TSA was performed by adding 5μM of 5-aza-dc daily for 5 days and TSA (300 nmol/L; Sigma) was added to the medium for the final 24 hours. […] PBS (phosphate buffered saline) alone was used as a control to exclude non-specific solvent effects on cells. All experiments were run independently twice. RNA was extracted using Qiazol Lysis reagent (Qiagen, Valencia, Calif.) according to the manufacturer's instructions. One microgram of total RNA was used for cDNA conversion using the Quantitect Reverse Transcription Kit (Qiagen, Valencia, Calif.), following manufacturer's protocol. Q-RT-PCR was performed using the SYBR Green chemistry in a 7900HT Real-Time PCR System (Applied Biosystems, Foster City, CA). […] The RT-PCR primer sequences are available in Supplementary Table 2B. […] Quantitative reverse transcriptase PCR was performed to determine whether promoter methylation of CCNA1 and CCND2 inversely correlated with their expression. […]"}, "[2]": {"test_system": "CCND2 expression in UCC cell lines", "test": "Q-RT-PCR of CCND2 expression after 5-aza-dc and/or TSA treatment of UCC cell lines", "format": "cell-based", "settings": "5 μM 5-aza-dc for 5 days, vs PBS control", "description": "as §1"}}, "note": "Entries after “also recorded” stand apart in the source; their conditions may differ."}
{"molecule": "Nc1ncn([C@H]2C[C@H](O)[C@@H](CO)O2)c(=O)n1", "note": "[5-aza-dc, 5-aza-deoxycytidine]", "values": [{"measurement": "CCNA1 expression (real-time RT-PCR)", "setting": "[1]", "value": "re-expression of CCNA1; also recorded: Reactivation of CCNA1 was observed"}, {"measurement": "CCND2 expression (real-time RT-PCR)", "setting": "[2]; HT1376 cell line", "value": "overexpression was observed after 5-aza-dc treatment only (not significant)"}, {"measurement": "CCND2 expression (real-time RT-PCR)", "setting": "[2]; UMUC-3, J82 and T24 cell lines", "value": "Reactivation of CCND2 was observed"}]}
